Among the data in the supplement of paper PMC10307832 are relative viability values, retold here.

What all share (test): relative viability (nuclei count vs DMSO), 5 days (fraction); higher = more cells survive
Compound in experiment [1]: CC1=C(N=C(N=C1N)[C@H](CC(=O)N)NC[C@@H](C(=O)N)N)C(=O)N[C@@H]([C@H](C2=CN=CN2)OC3C(C(C(C(O3)CO)O)O)OC4C(C(C(C(O4)CO)O)OC(=O)N)O)C(=O)N[C@H](C)[C@H]([C@H](C)C(=O)N[C@@H]([C@@H](C)O)C(=O)NCCC5=NC(=CS5)C6=NC(=CS6)C(=O)NCCC[S+](C)C)O [Bleomycin] + Cc1nc(Nc2ncc(C(=O)Nc3c(C)cccc3Cl)s2)cc(N2CCN(CCO)CC2)n1 [Dasatinib] (partner 0.075 µM)
Particulars: main component drawn. A digest of the protocol:
(§1)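 Relative viability equals treated-well nuclei counts divided by vehicle-well nuclei counts. Counts came from 4× images of lung cancer cell lines grown in 1536-well plates for 5 days after pin-tool dosing on the day after seeding. Dosing used one drug alone or a fixed anchor-drug dose plus five library-drug doses (not always all listed) in √10 steps, and values are medians of duplicate plates.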

Compound in experiment [2]: COc1cc([C@@H]2c3cc4c(cc3[C@@H](O[C@@H]3O[C@@H]5CO[C@@H](C)O[C@H]5[C@H](O)[C@H]3O)[C@H]3COC(=O)[C@H]23)OCO4)cc(OC)c1O [Etoposide] + Nc1nc2[nH]cc(CCc3ccc(C(=O)N[C@@H](CCC(=O)O)C(=O)O)cc3)c2c(=O)[nH]1 [Pemetrexed] (partner 0.2 µM)
A digest of the protocol:
as §1

Compound in experiment [3]: COc1cc([C@@H]2c3cc4c(cc3[C@@H](O[C@@H]3O[C@@H]5CO[C@@H](C)O[C@H]5[C@H](O)[C@H]3O)[C@H]3COC(=O)[C@H]23)OCO4)cc(OC)c1O [Etoposide] + CC(C)C[C@H](NC(=O)[C@H](Cc1ccccc1)NC(=O)c1cnccn1)B(O)O [Bortezomib] (partner 0.002 µM)
The method in brief: as §1

Compound in experiment [4]: COc1cc([C@@H]2c3cc4c(cc3[C@@H](O[C@@H]3O[C@@H]5CO[C@@H](C)O[C@H]5[C@H](O)[C@H]3O)[C@H]3COC(=O)[C@H]23)OCO4)cc(OC)c1O [Etoposide] + Cc1cc(Nc2cc(N3CCN(C)CC3)nc(Sc3ccc(NC(=O)C4CC4)cc3)n2)n[nH]1 [Tozasertib] (partner 0.1 µM)
The method in brief: as §1

Consider NCI-H3122, for which the relative viability in experiment [1] (first compound 0.01 µM) was determined as 0.833; in experiment [1] (first compound 0.03162 µM) it was 0.999; in experiment [1] (first compound 0.1 µM), 0.749; in experiment [1] (first compound 0.3162 µM), 0.366; in experiment [1] (first compound 1 µM), 0.206; in experiment [2] (first compound 0.01 µM), 0.21. For the same cell line, the relative viability in experiment [2] (first compound 0.03162 µM) turned out to be 0.207; in experiment [2] (first compound 0.1 µM) it was 0.206; in experiment [2] (first compound 0.3162 µM) it was 0.19; in experiment [2] (first compound 1 µM), 0.179; in experiment [3] (first compound 0.01 µM), 1.04; in experiment [3] (first compound 0.03162 µM), 0.986. The relative viability was 1.04 in experiment [3] (first compound 0.1 µM); 0.816 in experiment [3] (first compound 0.3162 µM); 0.47 in experiment [3] (first compound 1 µM); 0.441 in experiment [4] (first compound 0.01 µM); 0.324 in experiment [4] (first compound 0.03162 µM); 0.262 in experiment [4] (first compound 0.1 µM). The relative viability in experiment [4] (first compound 0.3162 µM) is 0.281; in experiment [4] (first compound 1 µM) it was 0.159.

In the case of PC-3 [JPC-3], the relative viability in experiment [1] (first compound 0.01 µM) was 0.881; in experiment [1] (first compound 0.03162 µM) it was 1.09; in experiment [1] (first compound 0.1 µM) it was 0.986; in experiment [1] (first compound 0.3162 µM), 0.72; in experiment [1] (first compound 1 µM), 0.618; in experiment [2] (first compound 0.01 µM), 1.1. The relative viability in experiment [2] (first compound 0.03162 µM) amounted to 1.23; in experiment [2] (first compound 0.1 µM), 1.09; in experiment [2] (first compound 0.3162 µM) it was 0.977; in experiment [2] (first compound 1 µM) it was 0.706; in experiment [3] (first compound 0.01 µM) it was 0.795; in experiment [3] (first compound 0.03162 µM), 0.756. The relative viability in experiment [3] (first compound 0.1 µM) turned out to be 0.93; in experiment [3] (first compound 0.3162 µM), 0.775; in experiment [3] (first compound 1 µM) it was 0.67; in experiment [4] (first compound 0.01 µM), 0.841; in experiment [4] (first compound 0.03162 µM), 0.882; in experiment [4] (first compound 0.1 µM), 0.928. In addition, the relative viability in experiment [4] (first compound 0.3162 µM) came to 0.853; in experiment [4] (first compound 1 µM) it was 0.707.

As for PC-14, the relative viability in experiment [1] (first compound 0.01 µM) is 0.176; in experiment [1] (first compound 0.03162 µM), 0.126; in experiment [1] (first compound 0.1 µM), 0.0817; in experiment [1] (first compound 0.3162 µM), 0.0123; in experiment [1] (first compound 1 µM), 0.0118; in experiment [2] (first compound 0.01 µM) it was 0.13. For the same cell line, the relative viability in experiment [2] (first compound 0.03162 µM) was 0.141; in experiment [2] (first compound 0.1 µM), 0.168; in experiment [2] (first compound 0.3162 µM), 0.121; in experiment [2] (first compound 1 µM), 0.106; in experiment [3] (first compound 0.01 µM) it was 0.9; in experiment [3] (first compound 0.03162 µM), 1.08. For the same cell line, the relative viability in experiment [3] (first compound 0.1 µM) came out at 0.918; in experiment [3] (first compound 0.3162 µM) it was 0.687; in experiment [3] (first compound 1 µM), 0.666; in experiment [4] (first compound 0.01 µM), 0.595; in experiment [4] (first compound 0.03162 µM), 0.536; in experiment [4] (first compound 0.1 µM), 0.754. The relative viability turned out to be 0.496 in experiment [4] (first compound 0.3162 µM) and 0.213 in experiment [4] (first compound 1 µM).

RERF-LC-KJ: the relative viability in experiment [1] (first compound 0.01 µM) came to 0.498; in experiment [1] (first compound 0.03162 µM) it was 0.56; in experiment [1] (first compound 0.1 µM) it was 0.468; in experiment [1] (first compound 0.3162 µM), 0.246; in experiment [1] (first compound 1 µM), 0.191; in experiment [2] (first compound 0.01 µM), 0.454. In addition, the relative viability in experiment [2] (first compound 0.03162 µM) was 0.507; in experiment [2] (first compound 0.1 µM), 0.48; in experiment [2] (first compound 0.3162 µM) it was 0.434; in experiment [2] (first compound 1 µM), 0.445; in experiment [3] (first compound 0.01 µM), 1.04; in experiment [3] (first compound 0.03162 µM), 1.2. Further, the relative viability is 0.986 in experiment [3] (first compound 0.1 µM); 1.03 in experiment [3] (first compound 0.3162 µM); 0.923 in experiment [3] (first compound 1 µM); 0.532 in experiment [4] (first compound 0.01 µM); 0.448 in experiment [4] (first compound 0.03162 µM); 0.493 in experiment [4] (first compound 0.1 µM). For the same cell line, the results for the relative viability in experiment [4] (first compound 0.3162 µM) and in experiment [4] (first compound 1 µM) were 0.386 and 0.316, respectively.

With SK-LU-1, the relative viability in experiment [1] (first compound 0.01 µM) turned out to be 0.169; in experiment [1] (first compound 0.03162 µM) it was 0.166; in experiment [1] (first compound 0.1 µM), 0.173; in experiment [1] (first compound 0.3162 µM) it was 0.144; in experiment [1] (first compound 1 µM), 0.104; in experiment [2] (first compound 0.01 µM), 0.991. Also, the relative viability in experiment [2] (first compound 0.03162 µM) is 0.863; in experiment [2] (first compound 0.1 µM) it was 0.817; in experiment [2] (first compound 0.3162 µM), 0.363; in experiment [2] (first compound 1 µM) it was 0.282; in experiment [3] (first compound 0.01 µM) it was 1.44; in experiment [3] (first compound 0.03162 µM), 1.11. For the same cell line, the relative viability in experiment [3] (first compound 0.1 µM) was 0.765; in experiment [3] (first compound 0.3162 µM), 0.515; in experiment [3] (first compound 1 µM), 0.272; in experiment [4] (first compound 0.01 µM), 0.356; in experiment [4] (first compound 0.03162 µM) it was 0.278; in experiment [4] (first compound 0.1 µM), 0.318. In addition, the relative viability is 0.161 in experiment [4] (first compound 0.3162 µM) and 0.167 in experiment [4] (first compound 1 µM).

Regarding SW 1573, the relative viability in experiment [1] (first compound 0.01 µM) was determined as 0.253; in experiment [1] (first compound 0.03162 µM), 0.289; in experiment [1] (first compound 0.1 µM), 0.434; in experiment [1] (first compound 0.3162 µM), 0.174; in experiment [1] (first compound 1 µM) it was 0.118; in experiment [2] (first compound 0.01 µM), 0.877. Besides, the relative viability in experiment [2] (first compound 0.03162 µM) stood at 0.785; in experiment [2] (first compound 0.1 µM), 0.397; in experiment [2] (first compound 0.3162 µM) it was 0.259; in experiment [2] (first compound 1 µM) it was 0.148; in experiment [3] (first compound 0.01 µM), 1; in experiment [3] (first compound 0.03162 µM), 0.977. The relative viability in experiment [3] (first compound 0.1 µM) came to 0.608; in experiment [3] (first compound 0.3162 µM), 0.449; in experiment [3] (first compound 1 µM), 0.186; in experiment [4] (first compound 0.01 µM), 0.163; in experiment [4] (first compound 0.03162 µM), 0.133; in experiment [4] (first compound 0.1 µM), 0.164. Besides, the relative viability in experiment [4] (first compound 0.3162 µM) came out at 0.156; in experiment [4] (first compound 1 µM), 0.0887.
